According to patent publication US20260262643A1, “HERBICIDAL BENZOXAZINES” (FMC CORPORATION, priority 2022, published 2026):

What was measured:
ragweed [1] = experiment: Test C preemergence; format: in vivo, Ambrosia artemisiifolia; settings: 0 to 100 scale (0 no effect, 100 complete control)
How it was run: (§1)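 Visual injury ratings on a 0–100 scale (100 = complete control) were made against untreated controls 10 days after treatment in the greenhouse. Compounds, formulated with surfactant in non-phytotoxic solvent, were sprayed on soil preemergence or onto one- to two-leaf plants 2–10 cm tall postemergence.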

barnyardgrass [2] = experiment: Test C postemergence; format: in vivo, Echinochloa crusgalli; settings: 10 days
How it was run: as §1

ryegrass, Italian [3] = experiment: Test C preemergence; format: in vivo, Lolium multiflorum; settings: 0 to 100 scale (0 no effect, 100 complete control)
How it was run: as §1

barnyardgrass [4] = experiment: Test D flooded paddy test; format: in vivo, Echinochloa crus-galli; settings: 250 g ai/ha, applied to paddy water, visual rating after 13 to 14 days, scale 0 to 100 (0 no effect, 100 complete control)
How it was run: (§2)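 Plants at the 2-leaf stage were grown in pots flooded to 3 cm, and compound was applied directly into the paddy water, with depth kept throughout. After 13–14 days in a greenhouse, injury was rated visually against untreated controls on a 0–100 scale (100 = complete control); a dash means not tested.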

pigweed, palmer [5] = experiment: Test C postemergence; format: in vivo, Amaranthus palmeri; settings: 10 days
How it was run: as §1

wheat [6] = experiment: Test C preemergence; format: in vivo, Triticum aestivum; settings: 0 to 100 scale (0 no effect, 100 complete control)
How it was run: as §1

ducksalad = experiment: Test D flooded paddy test; format: in vivo, Heteranthera limosa; settings: 250 g ai/ha, applied to paddy water, visual rating after 13 to 14 days, scale 0 to 100 (0 no effect, 100 complete control)
How it was run: as §2

blackgrass [7] = experiment: Test C postemergence; format: in vivo, Alopecurus myosuroides; settings: 10 days
How it was run: as §1

horseweed = experiment: Test C postemergence; format: in vivo, Erigeron canadensis; settings: 10 days
How it was run: as §1

rice = experiment: Test D flooded paddy test; format: in vivo, Oryza sativa; settings: 250 g ai/ha, applied to paddy water, visual rating after 13 to 14 days, scale 0 to 100 (0 no effect, 100 complete control)
How it was run: as §2

soybean [8] = experiment: Test C postemergence; format: in vivo, Glycine max; settings: 10 days
How it was run: as §1

ryegrass, Italian [9] = experiment: Test C postemergence; format: in vivo, Lolium multiflorum; settings: 10 days
How it was run: as §1

green foxtail [10] = experiment: Test C preemergence; format: in vivo, Setaria viridis; settings: 0 to 100 scale (0 no effect, 100 complete control)
How it was run: as §1

blackgrass [11] = experiment: Test C preemergence; format: in vivo, Alopecurus myosuroides; settings: 0 to 100 scale (0 no effect, 100 complete control)
How it was run: as §1

barnyardgrass [12] = experiment: Test C preemergence; format: in vivo, Echinochloa crusgalli; settings: 0 to 100 scale (0 no effect, 100 complete control)
How it was run: as §1

oat, wild [13] = experiment: Test C postemergence; format: in vivo, Avena fatua; settings: 10 days
How it was run: as §1

kochia [14] = experiment: Test C postemergence; format: in vivo, Bassia scoparia; settings: 10 days
How it was run: as §1

pigweed, palmer [15] = experiment: Test C preemergence; format: in vivo, Amaranthus palmeri; settings: 0 to 100 scale (0 no effect, 100 complete control)
How it was run: as §1

corn [16] = experiment: Test C postemergence; format: in vivo, Zea mays; settings: 10 days
How it was run: as §1

green foxtail [17] = experiment: Test C postemergence; format: in vivo, Setaria viridis; settings: 10 days
How it was run: as §1

oat, wild [18] = experiment: Test C preemergence; format: in vivo, Avena fatua; settings: 0 to 100 scale (0 no effect, 100 complete control)
How it was run: as §1

corn [19] = experiment: Test C preemergence; format: in vivo, Zea mays; settings: 0 to 100 scale (0 no effect, 100 complete control)
How it was run: as §1

sedge, umbrella = experiment: Test D flooded paddy test; format: in vivo, Cyperus difformis; settings: 250 g ai/ha, applied to paddy water, visual rating after 13 to 14 days, scale 0 to 100 (0 no effect, 100 complete control)
How it was run: as §2

wheat [20] = experiment: Test C postemergence; format: in vivo, Triticum aestivum; settings: 10 days
How it was run: as §1

ragweed [21] = experiment: Test C postemergence; format: in vivo, Ambrosia artemisiifolia; settings: 10 days
How it was run: as §1

soybean [22] = experiment: Test C preemergence; format: in vivo, Glycine max; settings: 0 to 100 scale (0 no effect, 100 complete control)
How it was run: as §1

kochia [23] = experiment: Test C preemergence; format: in vivo, Bassia scoparia; settings: 0 to 100 scale (0 no effect, 100 complete control)
How it was run: as §1

[24] = Preemergence, 500 g ai/ha, visual rating after 10 days
[25] = Test C, preemergence, 125 g ai/ha
[26] = 125 g ai/ha, postemergence, 0 to 100 scale, 0 no effect, 100 complete control
[27] = Postemergence, 500 g ai/ha, visual 0 to 100 scale (0 no effect, 100 complete control)

SMILES: COc1cc(C(=O)N2C[C@H](C)Oc3c(Cl)cccc32)cc(-n2cnc(C(C)(C)C)n2)c1 [Compound 213]
- Plant response rating, Ragweed (ragweed [1]; [24]): 30
- Ragweed plant response rating (ragweed [1]; [25]): 0
- Plant response rating, Barnyardgrass (barnyardgrass [2]; [26]): 20
- Plant response rating, Barnyardgrass (barnyardgrass [2]; [27]): 30
- Plant response rating, Ryegrass, Italian (ryegrass, Italian [3]; [24]): 90
- Ryegrass, Italian plant response rating (ryegrass, Italian [3]; [25]): 90
- Plant response rating, Barnyardgrass (Flood) (barnyardgrass [4]): 20
- Plant response rating, Pigweed, Palmer (pigweed, palmer [5]; [26]): 100
- Plant response rating, Pigweed, Palmer (pigweed, palmer [5]; [27]): 100
- Plant response rating, Wheat (wheat [6]; [24]): 90
- Wheat plant response rating (wheat [6]; [25]): 10
- Plant response rating, Ducksalad (Flood) (ducksalad): 90
- Plant response rating, Blackgrass (blackgrass [7]; [26]): 0
- Plant response rating, Blackgrass (blackgrass [7]; [27]): 70
- Plant response rating, Horseweed (horseweed; [26]): 20
- Plant response rating, Horseweed (horseweed; [27]): 30
- Plant response rating, Rice (Flood) (rice): 0
- Plant response rating, Soybean (soybean [8]; [26]): 100
- Plant response rating, Soybean (soybean [8]; [27]): 100
- Plant response rating, Ryegrass, Italian (ryegrass, Italian [9]; [26]): 30
- Plant response rating, Ryegrass, Italian (ryegrass, Italian [9]; [27]): 60
- Plant response rating, Foxtail, Green (green foxtail [10]; [24]): 100
- Foxtail, Green plant response rating (green foxtail [10]; [25]): 100
- Plant response rating, Blackgrass (blackgrass [11]; [24]): 80
- Blackgrass plant response rating (blackgrass [11]; [25]): 60
- Plant response rating, Barnyardgrass (barnyardgrass [12]; [24]): 100
- Barnyardgrass plant response rating (barnyardgrass [12]; [25]): 60
- Plant response rating, Oat, Wild (oat, wild [13]; [26]): 10
- Plant response rating, Oat, Wild (oat, wild [13]; [27]): 20
- Plant response rating, Kochia (kochia [14]; [26]): 90
- Plant response rating, Kochia (kochia [14]; [27]): 90
- Plant response rating, Pigweed, Palmer (pigweed, palmer [15]; [24]): 100
- Pigweed, Palmer plant response rating (pigweed, palmer [15]; [25]): 100
- Plant response rating, Corn (corn [16]; [26]): 10
- Plant response rating, Corn (corn [16]; [27]): 20
- Plant response rating, Foxtail, Green (green foxtail [17]; [26]): 40
- Plant response rating, Foxtail, Green (green foxtail [17]; [27]): 70
- Plant response rating, Oat, Wild (oat, wild [18]; [24]): 70
- Oat, Wild plant response rating (oat, wild [18]; [25]): 10
- Plant response rating, Corn (corn [19]; [24]): 10
- Corn plant response rating (corn [19]; [25]): 0
- Plant response rating, Sedge, Umbrella (Flood) (sedge, umbrella): 100
- Plant response rating, Wheat (wheat [20]; [26]): 20
- Plant response rating, Wheat (wheat [20]; [27]): 20
- Plant response rating, Ragweed (ragweed [21]; [26]): 30
- Plant response rating, Ragweed (ragweed [21]; [27]): 80
- Plant response rating, Soybean (soybean [22]; [24]): 100
- Soybean plant response rating (soybean [22]; [25]): 50
- Plant response rating, Kochia (kochia [23]; [24]): 100
- Kochia plant response rating (kochia [23]; [25]): 30
